Assay results published in patent publication US9302999B2, “Substituted triazoles as herbicides” (E. I. DU PONT DE NEMOURS AND COMPANY, priority 2012, dated 2016).

System: sedge, umbrella (small-flower umbrella sedge Cyperus difformis)
Assay: Test B flooded paddy: sedge, umbrella
Format: in vivo
Conditions: Flood, applied to paddy water at 2-leaf stage, visually evaluated after 13 to 15 days
In short: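 Paddy-water application: seedlings at 2-leaf stage, flood depth 3 cm maintained for the test duration. Evaluation after 13–15 days in the greenhouse by eye relative to controls; 0–100 scale.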

| SMILES | Plant response rating, Sedge, Umbrella (0 to 100 scale, 0 is no effect, 100 is complete control) (250 g ai/ha) | Plant response rating, Sedge, Umbrella (0 to 100 scale, 0 is no effect, 100 is complete control) (125 g ai/ha) |
| --- | --- | --- |
| CCCc1nn(-c2ccc(F)cc2)nc1Cc1ccnc(C(F)(F)F)c1 [Compound 153] | 90 | – |
| Cc1nn(-c2ccc(C(F)(F)F)c(F)c2)nc1Cc1ccnc(C(F)(F)F)c1 [Compound 162] | – | 80 |
| CCc1nn(-c2ccc(F)cc2)nc1Oc1ccnc(C(F)(F)F)c1 [Compound 166] | – | 70 |
| CCCc1nn(-c2ccc(C(F)(F)F)c(F)c2)nc1Oc1ccnc(C(F)(F)F)c1 [Compound 185] | 95 | – |
| CCOc1nn(-c2ccc(Br)cc2)nc1Cc1ccnc(C(F)(F)F)c1 [Compound 189] | – | 0 |
